Measurements reported in US11339150B2, “Benzimidazole compounds as HDAC6 inhibitors” (OnKure, Inc., priority 2019, dated 2022).

Biological target: T1, HDAC6 (Homo sapiens, UniProt Q9UBN7)
T1 sequence (Q9UBN7 1-1215): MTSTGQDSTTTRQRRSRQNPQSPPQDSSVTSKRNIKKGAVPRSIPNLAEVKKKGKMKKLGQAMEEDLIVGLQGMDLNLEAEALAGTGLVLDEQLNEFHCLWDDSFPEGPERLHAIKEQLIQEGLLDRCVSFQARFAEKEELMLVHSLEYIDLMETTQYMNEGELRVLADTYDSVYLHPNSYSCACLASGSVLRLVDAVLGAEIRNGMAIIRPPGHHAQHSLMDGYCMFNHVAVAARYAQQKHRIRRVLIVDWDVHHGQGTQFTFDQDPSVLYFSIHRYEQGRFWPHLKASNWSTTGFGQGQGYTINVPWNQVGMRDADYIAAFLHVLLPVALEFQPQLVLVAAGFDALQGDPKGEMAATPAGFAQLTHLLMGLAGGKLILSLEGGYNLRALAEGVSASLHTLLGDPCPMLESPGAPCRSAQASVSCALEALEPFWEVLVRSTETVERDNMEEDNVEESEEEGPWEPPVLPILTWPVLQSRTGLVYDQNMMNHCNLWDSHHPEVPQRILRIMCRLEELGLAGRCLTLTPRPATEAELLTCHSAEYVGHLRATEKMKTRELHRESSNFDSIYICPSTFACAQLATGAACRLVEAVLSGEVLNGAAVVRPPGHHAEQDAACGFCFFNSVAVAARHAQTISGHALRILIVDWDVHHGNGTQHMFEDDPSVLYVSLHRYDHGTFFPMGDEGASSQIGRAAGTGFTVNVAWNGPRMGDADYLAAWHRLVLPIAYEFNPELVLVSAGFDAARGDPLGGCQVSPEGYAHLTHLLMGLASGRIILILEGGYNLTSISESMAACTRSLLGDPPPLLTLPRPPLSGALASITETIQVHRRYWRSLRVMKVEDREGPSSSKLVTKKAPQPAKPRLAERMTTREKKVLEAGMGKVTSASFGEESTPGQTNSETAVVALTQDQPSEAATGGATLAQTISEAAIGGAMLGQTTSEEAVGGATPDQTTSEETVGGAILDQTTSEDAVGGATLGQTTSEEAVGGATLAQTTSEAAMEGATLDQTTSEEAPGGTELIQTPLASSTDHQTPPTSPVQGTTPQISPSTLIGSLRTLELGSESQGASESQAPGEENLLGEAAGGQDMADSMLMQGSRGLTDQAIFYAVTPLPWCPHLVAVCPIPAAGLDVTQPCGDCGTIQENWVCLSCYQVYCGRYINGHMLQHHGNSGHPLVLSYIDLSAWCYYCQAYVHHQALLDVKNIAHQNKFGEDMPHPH
Experiment: HDAC assay (fluorogenic substrate), HDAC6
Format: biochemical
Procedure: Base Reaction buffer: 50 mM Tris-HCl, pH8.0, 137 mM NaCl, 2.7 mM KCl, and 1 mM MgCl2. Add fresh: 1 mg/ml BSA, 1% DMSO
Fluorogenic HDAC General Substrate: 50 μM, Arg-His-Lys-Lys(Ac)
• 1. Deliver 2× enzyme in wells of reaction plate except No Enzyme control wells. Add buffer in No En wells. • 2. Deliver compounds in 100% DMSO into the enzyme mixture by Acoustic technology (Echo550; nanoliter range). Spin down and pre-incubation. • 3. Deliver 2× Substrate Mixture (Fluorogenic HDAC Substrate and co-factor if applicable) in all reaction wells to initiate the reaction. Spin and shake. • 4. Incubate for 30 min for Class 2A, 1 hr for HDAC1, 2, 3, and 6, and 2 hr for the rest of HDACs and SIRTs at 30° C. with seal. Development Step: • 5. Add Developer with Trichostatin A (or Nicotinamide for SIRTs) to stop the reaction and to generate fluorescent color. • 6. Kinetic measurement for 1.5 hr with Envision with 15 min interval. (Ex/Em=360/460 nm) • 7. Take endpoint reading for analysis after the development reaches plateau.

inhibition at 10 µM [%]	SMILES
> 90	CNC(=O)n1cnc2c(-c3ccccc3)cc(Nc3ncc(-c4nnc(C(F)F)o4)cn3)cc21 [Example 28, 6-((5-(5-(difluoromethyl)-1,3,4-oxadiazol-2-yl)pyrimidin-2-yl)amino)-N-methyl-4-phenyl-1H-benzo[d]imidazole-1-carboxamide]
> 90	CC(CO)n1cnc2c(-c3ccccc3)cc(Nc3ncc(-c4nnc(C(F)F)o4)cn3)cc21 (stereo not drawn) [Example 29, 2-(6-((5-(5-(difluoromethyl)-1,3,4-oxadiazol-2-yl)pyrimidin-2-yl)amino)-4-phenyl-1H-benzo[d]imidazol-1-yl)propan-1-ol]
> 90	Cc1nc2c(-c3ccccc3)cc(Nc3ncc(-c4nnc(C(F)F)o4)cn3)cc2n1CCO [Example 30, 2-(6-((5-(5-(difluoromethyl)-1,3,4-oxadiazol-2-yl)pyrimidin-2-yl)amino)-2-methyl-4-phenyl-1H-benzo[d]imidazol-1-yl)ethan-1-ol]
> 90	Fc1c(Nc2ncc(-c3nnc(C(F)F)o3)cn2)cc(-c2ccccc2)c2nc[nH]c12 [Example 39, N-(5-(5-(difluoromethyl)-1,3,4-oxadiazol-2-yl)pyrimidin-2-yl)-7-fluoro-4-phenyl-1H-benzo[d]imidazol-6-amine]

Continued, compound first:

SMILES	inhibition at 10 µM [%]
O=S(=O)(NCC1CC1)c1cc(Nc2ncc(-c3nnc(C(F)F)o3)cn2)cc2c1ncn2CCO [Example 26, N-(cyclopropylmethyl)-6-((5-(5-(difluoromethyl)-1,3,4-oxadiazol-2-yl)pyrimidin-2-yl)amino)-1-(2-hydroxyethyl)-1H-benzo[d]imidazole-4-sulfonamide]	> 90
OCCn1cnc2c(-c3ccc(F)cc3F)cc(Nc3ncc(-c4nnc(C(F)F)o4)cn3)cc21 [Example 32, 2-(6-((5-(5-(difluoromethyl)-1,3,4-oxadiazol-2-yl)pyrimidin-2-yl)amino)-4-(2,4-difluorophenyl)-1H-benzo[d]imidazol-1-yl)ethan-1-ol]	> 90
OCCn1cnc2c(-c3ccc(F)cc3C(F)(F)F)cc(Nc3ncc(-c4nnc(C(F)F)o4)cn3)cc21 [Example 33, 2-(6-((5-(5-(difluoromethyl)-1,3,4-oxadiazol-2-yl)pyrimidin-2-yl)amino)-4-(4-fluoro-2-(trifluoromethyl)phenyl)-1H-benzo[d]imidazol-1-yl)ethan-1-ol]	> 90
CC(C)(C)c1cc(Nc2ncc(-c3nnc(C(F)F)o3)cn2)cc2c1ncn2CCO [Example 34, 2-(4-(tert-butyl)-6-((5-(5-(difluoromethyl)-1,3,4-oxadiazol-2-yl)pyrimidin-2-yl)amino)-1H-benzo[d]imidazol-1-yl)ethan-1-ol]	> 90
FC(F)c1nnc(-c2cnc(Nc3cc(-c4ccncc4)c4nc[nH]c4c3)nc2)o1 [Example 35, N-(5-(5-(difluoromethyl)-1,3,4-oxadiazol-2-yl)pyrimidin-2-yl)-4-(pyridin-4-yl)-1H-benzo[d]imidazol-6-amine]	> 90
FC(F)c1nnc(-c2cnc(Nc3cc(-c4ccn[nH]4)c4nc[nH]c4c3)nc2)o1 [Example 36, N-(5-(5-(difluoromethyl)-1,3,4-oxadiazol-2-yl)pyrimidin-2-yl)-4-(1H-pyrazol-5-yl)-1H-benzo[d]imidazol-6-amine]	> 90
OCCn1cnc2c(-c3ccn[nH]3)cc(Nc3ncc(-c4nnc(C(F)F)o4)cn3)cc21 [Example 37, 2-(6-((5-(5-(difluoromethyl)-1,3,4-oxadiazol-2-yl)pyrimidin-2-yl)amino)-4-(1H-pyrazol-5-yl)-1H-benzo[d]imidazol-1-yl)ethan-1-ol]	> 90
Fc1c(Nc2ncc(-c3nnc(C(F)F)o3)cn2)cc2[nH]cnc2c1-c1ccccc1 [Example 38, N-(5-(5-(difluoromethyl)-1,3,4-oxadiazol-2-yl)pyrimidin-2-yl)-5-fluoro-4-phenyl-1H-benzo[d]imidazol-6-amine]	> 90
